Experimental findings from patent US10758534B2 (Vertex Pharmaceuticals Incorporated, priority 2014, dated 2020) are described below.

T1 sequence (P13569 with tags, fused parts or gaps DEL508-508): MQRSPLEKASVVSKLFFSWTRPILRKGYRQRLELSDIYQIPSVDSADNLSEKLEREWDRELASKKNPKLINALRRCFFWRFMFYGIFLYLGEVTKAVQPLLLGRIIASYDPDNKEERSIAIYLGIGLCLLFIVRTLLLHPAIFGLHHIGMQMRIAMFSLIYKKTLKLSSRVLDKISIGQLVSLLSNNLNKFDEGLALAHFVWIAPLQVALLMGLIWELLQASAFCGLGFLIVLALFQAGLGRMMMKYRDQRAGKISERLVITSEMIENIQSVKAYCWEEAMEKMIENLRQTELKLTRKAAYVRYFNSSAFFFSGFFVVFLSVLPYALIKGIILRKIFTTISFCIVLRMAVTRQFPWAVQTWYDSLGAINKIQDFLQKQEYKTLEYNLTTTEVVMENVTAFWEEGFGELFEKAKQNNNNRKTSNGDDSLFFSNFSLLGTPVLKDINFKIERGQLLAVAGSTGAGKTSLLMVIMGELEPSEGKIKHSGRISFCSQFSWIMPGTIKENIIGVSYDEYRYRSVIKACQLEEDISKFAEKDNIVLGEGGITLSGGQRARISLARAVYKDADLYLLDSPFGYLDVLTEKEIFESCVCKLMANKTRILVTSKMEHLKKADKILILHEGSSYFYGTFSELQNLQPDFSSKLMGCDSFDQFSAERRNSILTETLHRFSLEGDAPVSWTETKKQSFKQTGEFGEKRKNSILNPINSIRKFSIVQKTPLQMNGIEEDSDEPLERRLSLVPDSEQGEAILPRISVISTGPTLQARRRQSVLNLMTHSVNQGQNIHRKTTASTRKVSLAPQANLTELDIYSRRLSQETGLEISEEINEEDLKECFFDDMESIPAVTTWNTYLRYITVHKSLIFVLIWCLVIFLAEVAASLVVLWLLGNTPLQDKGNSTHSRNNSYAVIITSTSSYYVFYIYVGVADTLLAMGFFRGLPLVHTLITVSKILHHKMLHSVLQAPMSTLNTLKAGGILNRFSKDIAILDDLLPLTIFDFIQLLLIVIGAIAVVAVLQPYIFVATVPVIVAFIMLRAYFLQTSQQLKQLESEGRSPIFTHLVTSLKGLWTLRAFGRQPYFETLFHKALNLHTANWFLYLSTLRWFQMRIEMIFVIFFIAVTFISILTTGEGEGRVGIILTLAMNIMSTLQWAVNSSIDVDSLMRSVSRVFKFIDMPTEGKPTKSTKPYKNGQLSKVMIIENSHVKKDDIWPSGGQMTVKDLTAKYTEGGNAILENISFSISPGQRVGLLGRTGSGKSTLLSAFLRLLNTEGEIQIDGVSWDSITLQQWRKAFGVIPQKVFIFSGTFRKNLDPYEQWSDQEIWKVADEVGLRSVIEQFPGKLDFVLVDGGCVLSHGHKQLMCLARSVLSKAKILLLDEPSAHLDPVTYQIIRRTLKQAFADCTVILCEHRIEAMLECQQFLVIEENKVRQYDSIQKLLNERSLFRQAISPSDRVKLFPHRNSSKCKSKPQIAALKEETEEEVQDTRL

The first assay concerns the target T1, F508del (Homo sapiens, UniProt P13569, DEL508-508).
T1 construct: expressed in transfected cells
Nature of the assay: Protocol 2: FRET membrane potential optical assay (VIPR), identification of correction compounds. The settings on record: F508del CFTR modulator activity; compounds of Table 1; read-out: EC30. Format: cell-based. Put shortly: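 Mouse NIH3T3 cells, stable F508del; cpd 16 hrs, 37° C., serum-free; pos ctrl 27° C. 16 hrs. Rinse in Krebs Ringers, dye load, then add 10 μM forskolin + 20 μM genistein with Cl^−-free (gluconate) medium; depolarization by FRET voltage dyes.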
As a reminder, the EC30 is the concentration at which the effect reaches the 30% level. For `CC(C)COc1cc(F)cc(-c2ccc(C(=O)NS(=O)(=O)c3cccc(N)n3)c(N3CC(C(F)(F)F)CC3(C)C)n2)c1` (centres unmarked) [Compound 2573], the EC30 was less than 3000 nM.
Consider `C[C@@H]1CN(c2nc(-c3ccccc3OC(F)(F)F)ccc2C(=O)NS(=O)(=O)N2CC[C@H](N)C2)C(C)(C)C1` [Compound 2070, N-[(3S)-3-aminopyrrolidin-1-yl]sulfonyl-6-[2-(trifluoromethoxy)phenyl]-2-[(4S)-2,2,4-trimethylpyrrolidin-1-yl]pyridine-3-carboxamide], for which the EC30 was less than 3000 nM.
On the same count and under the same terms, the same measure for `C[C@@H]1CN(c2nc(C(C)(C)C)c(C3=CCN(C(=O)CC4CCCCC4)CC3)cc2C(=O)NS(=O)(=O)c2cccc(N)n2)C(C)(C)C1` [Compound 2596, N-[(6-amino-2-pyridyl)sulfonyl]-6-tert-butyl-5-[1-(2-cyclohexylacetyl)-3,6-dihydro-2H-pyridin-4-yl]-2-[(4S)-2,2,4-trimethylpyrrolidin-1-yl]pyridine-3-carboxamide]: less than 3000 nM; for `Cc1ccc2cccc(Oc3cccc(S(=O)(=O)NC(=O)c4cccnc4N4CC(C)CC4(C)C)n3)c2n1` (centres unmarked) [Compound 2643, N—[[6-[(2-methyl-8-quinolyl)oxy]-2-pyridyl]sulfonyl]-2-(2,2,4-trimethylpyrrolidin-1-yl)pyridine-3-carboxamide]: less than 3000 nM.
Still for that read-out and setting: the value for `C[C@@H]1CN(c2nc(-c3ccccc3O)ccc2C(=O)NS(=O)(=O)c2ccc[nH]c2=O)C(C)(C)C1` [Compound 2480, 6-(2-hydroxyphenyl)-N-[(2-oxo-1H-pyridin-3-yl)sulfonyl]-2-[(4S)-2,2,4-trimethylpyrrolidin-1-yl]pyridine-3-carboxamide] was 3000 to 10000 nM.
For `CC1CN(c2ncccc2C(=O)NS(=O)(=O)c2cccc(NCC(F)F)n2)C(C)(C)C1` (centres unmarked) [Compound 2350, N—[[6-(2,2-difluoroethylamino)-2-pyridyl]sulfonyl]-2-(2,2,4-trimethylpyrrolidin-1-yl)pyridine-3-carboxamide], the EC30 was in the range of 3000 to 10000 nM.
In the case of `C[C@@H]1CN(c2nc(-c3ccc(N(C)C)nc3)ccc2C(=O)NS(=O)(=O)c2cccnc2N)C(C)(C)C1` [Compound 2319, N-[(2-amino-3-pyridyl)sulfonyl]-6-[6-(dimethylamino)-3-pyridyl]-2-[(4S)-2,2,4-trimethylpyrrolidin-1-yl]pyridine-3-carboxamide], the EC30 lay within 3000 to 10000 nM.
On the same count and under the same terms, the same measure for `CC1CN(c2ncccc2C(=O)NS(=O)(=O)c2cccc(N(C)CC3CC3)n2)C(C)(C)C1` (centres unmarked) [Compound 2044, N—[[6-[cyclopropylmethyl(methyl)amino]-2-pyridyl]sulfonyl]-2-(2,2,4-trimethylpyrrolidin-1-yl)pyridine-3-carboxamide]: less than 3000 nM; for `C[C@@H]1CN(c2nc(-c3ccc(Cl)cc3)ccc2C(=O)NS(=O)(=O)c2cccnc2N)C(C)(C)C1` [Compound 2367, N-[(2-amino-3-pyridyl)sulfonyl]-6-(4-chlorophenyl)-2-[(4S)-2,2,4-trimethylpyrrolidin-1-yl]pyridine-3-carboxamide]: less than 3000 nM; for `C[C@@H]1CN(c2nc(-c3ccc(C(F)(F)F)cc3)ccc2C(=O)NS(=O)(=O)c2cccc(N)n2)C(C)(C)C1` [Compound 2296, N-[(6-amino-2-pyridyl)sulfonyl]-6-[4-(trifluoromethyl)phenyl]-2-[(4S)-2,2,4-trimethylpyrrolidin-1-yl]pyridine-3-carboxamide]: less than 3000 nM.
On the same count and under the same terms, the value for `CC1CN(c2nc(OC(C)C)c(F)cc2C(=O)NS(=O)(=O)c2cccc(N)n2)C(C)(C)C1` (centres unmarked) [Compound 2230, N-[(6-amino-2-pyridyl)sulfonyl]-5-fluoro-6-isopropoxy-2-(2,2,4-trimethylpyrrolidin-1-yl)pyridine-3-carboxamide] was less than 3000 nM; that for `CC1CN(c2ncccc2C(=O)NS(=O)(=O)c2cccc(Nc3ccc(F)cc3)n2)C(C)(C)C1` (centres unmarked) [Compound 2102, N—[[6-(4-fluoroanilino)-2-pyridyl]sulfonyl]-2-(2,2,4-trimethylpyrrolidin-1-yl)pyridine-3-carboxamide] was less than 3000 nM.
The same measure, in the same setting: the value for `CC1CN(c2ncccc2C(=O)NS(=O)(=O)c2cccc(N3CCC(CCN(C)C)CC3)n2)C(C)(C)C1` (centres unmarked) [Compound 2383, N—[[6-[4-(2-dimethylaminoethyl)-1-piperidyl]-2-pyridyl]sulfonyl]-2-(2,2,4-trimethylpyrrolidin-1-yl)pyridine-3-carboxamide] was 3000 to 10000 nM; that for `CC1CN(c2ncccc2C(=O)NS(=O)(=O)c2cccc(Oc3cc(Cl)ccc3F)n2)C(C)(C)C1` (centres unmarked) [Compound 2598, N—[[6-(5-chloro-2-fluoro-phenoxy)-2-pyridyl]sulfonyl]-2-(2,2,4-trimethylpyrrolidin-1-yl)pyridine-3-carboxamide] was less than 3000 nM.
`CCOc1ccccc1-c1ccc(C(=O)NS(=O)(=O)N2CC[C@H](N)C2)c(N2C[C@@H](C)CC2(C)C)n1` [Compound 2050, N-[(3S)-3-aminopyrrolidin-1-yl]sulfonyl-6-(2-ethoxyphenyl)-2-[(4S)-2,2,4-trimethylpyrrolidin-1-yl]pyridine-3-carboxamide]: the EC30 was less than 3000 nM.
The same measure, in the same setting: the value for `CC1CN(c2ncccc2C(=O)NS(=O)(=O)c2cccc(N3CCOC(C)C3)n2)C(C)(C)C1` (centres unmarked) [Compound 2324, N—[[6-(2-methylmorpholin-4-yl)-2-pyridyl]sulfonyl]-2-(2,2,4-trimethylpyrrolidin-1-yl)pyridine-3-carboxamide] was 3000 to 10000 nM.
Same read-out and setting: the value for `CC1CN(c2ncccc2C(=O)NS(=O)(=O)c2cccc(OC3(C)CCCCCC3)n2)C(C)(C)C1` (centres unmarked) [Compound 2057, N—[[6-(1-methylcycloheptoxy)-2-pyridyl]sulfonyl]-2-(2,2,4-trimethylpyrrolidin-1-yl)pyridine-3-carboxamide] was less than 3000 nM; that for `CCOc1cc(C)cc(-c2ccc(C(=O)NS(=O)(=O)c3cccc(N)n3)c(Oc3c(C)cc(C)cc3C)n2)n1` [Compound 2511, N-[(6-amino-2-pyridyl)sulfonyl]-6-(6-ethoxy-4-methyl-2-pyridyl)-2-(2,4,6-trimethylphenoxy)pyridine-3-carboxamide] was less than 3000 nM; that for `COc1ccc2nc(N3C[C@@H](C)CC3(C)C)c(C(=O)NS(=O)(=O)c3ccc[nH]c3=O)cc2c1` [Compound 2419, 6-methoxy-N-[(2-oxo-1H-pyridin-3-yl)sulfonyl]-2-[(4S)-2,2,4-trimethylpyrrolidin-1-yl]quinoline-3-carboxamide] was 3000 to 10000 nM.

Staying with this assay, now noted: Table 3; compounds of Table 1 as modulators of CFTR activity; protocol not stated.
In the case of `Cc1cc(C)c(Cn2c(C(=O)NS(=O)(=O)c3cccc(N)c3)cc3cccc(C)c32)c(C)c1` [Compound 194, N-(3-aminophenyl)sulfonyl-7-methyl-1-[(2,4,6-trimethylphenyl)methyl]indole-2-carboxamide], the EC30 result is listed as “+++ (“+++” means <3 uM)”.
Still for that read-out and setting: the value for `CC(C)COc1cc(F)cc(-c2ccc(C(=O)NS(=O)(=O)c3cccc(N)n3)c(N3CCCCCC3)n2)c1` [Compound 418, N-[(6-amino-2-pyridyl)sulfonyl]-2-(azepan-1-yl)-6-(3-fluoro-5-isobutoxy-phenyl)pyridine-3-carboxamide] was “+++ (“+++” means <3 uM)”; that for `CC(C)COc1cc(F)cc(-c2ccc(C(=O)NS(=O)(=O)c3cccc(N)n3)c(N3CCCC3Cc3ccccc3)n2)c1` (centres unmarked) [Compound 772, N-[(6-amino-2-pyridyl)sulfonyl]-2-(2-benzylpyrrolidin-1-yl)-6-(3-fluoro-5-isobutoxy-phenyl)pyridine-3-carboxamide] was “+++ (“+++” means <3 uM)”.
For `Cc1cc(C)c(Oc2nc(C(C)(C)C)ccc2C(=O)NS(=O)(=O)c2cccc(=O)[nH]2)c(C)c1` [Compound 305, 6-tert-butyl-N-[(6-oxo-1H-pyridin-2-yl)sulfonyl]-2-(2,4,6-trimethylphenoxy)pyridine-3-carboxamide], the EC30 entry was “+++ (“+++” means <3 uM)”.
As to `COCCCc1ccc(C(=O)NS(=O)(=O)c2cccc(N)n2)c(Oc2c(C)cc(C)cc2C)n1` [Compound 791, N-[(6-amino-2-pyridyl)sulfonyl]-6-(3-methoxypropyl)-2-(2,4,6-trimethylphenoxy)pyridine-3-carboxamide], the EC30 entry was “++ (“++” means between 3 uM and 10 uM)”.
The same measure, in the same setting: the same measure for `CC(C)COc1cc(F)cc(-c2ccc(C(=O)NS(=O)(=O)c3cccc(N)n3)c(N3CCC(C)C(C)(C)C3)n2)c1` (centres unmarked) [Compound 575, N-[(6-amino-2-pyridyl)sulfonyl]-6-(3-fluoro-5-isobutoxy-phenyl)-2-(3,3,4-trimethyl-1-piperidyl)pyridine-3-carboxamide]: “+++ (“+++” means <3 uM)”.
On to `CC(C)COc1cccc(-c2ccc(C(=O)NS(=O)(=O)c3ccn[nH]3)c(N3[C@H](C)CC[C@@H]3C)n2)c1` [Compound 710, 2-[(2S,5R)-2,5-dimethylpyrrolidin-1-yl]-6-(3-isobutoxyphenyl)-N-(1H-pyrazol-5-ylsulfonyl)pyridine-3-carboxamide], for which the EC30 entry is “+++ (“+++” means <3 uM)”.
Still for that read-out and setting: the same measure for `COc1ccnc2c1cc(C(=O)NS(=O)(=O)c1cccc(N)n1)n2Cc1c(C)cc(C)cc1C` [Compound 539, N-[(6-amino-2-pyridyl)sulfonyl]-4-methoxy-1-[(2,4,6-trimethylphenyl)methyl]pyrrolo[2,3-b]pyridine-2-carboxamide]: “+ (“+” means greater than 10 uM)”; for `CC(C)Oc1ccc(-c2ccc(C(=O)NS(=O)(=O)c3ccn[nH]3)c(N3C[C@H](C)C[C@H](C)C3)n2)cn1` [Compound 446, 2-[(3R,5S)-3,5-dimethyl-1-piperidyl]-6-(6-isopropoxy-3-pyridyl)-N-(1H-pyrazol-5-ylsulfonyl)pyridine-3-carboxamide]: “+++ (“+++” means <3 uM)”; for `COc1c(C)cccc1S(=O)(=O)NC(=O)c1cc(C(C)(C)C)nn1Cc1c(C)cccc1C` [Compound 59, 5-tert-butyl-2-[(2,6-dimethylphenyl)methyl]-N-(2-methoxy-3-methyl-phenyl)sulfonyl-pyrazole-3-carboxamide]: “+++ (“+++” means <3 uM)”.
